Laboratory results taken from ChEMBL document CHEMBL1201862, “PubChem BioAssay data set” (2004).
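Cultured in 96-well plates, cells were exposed to test compound for 48 hours across five concentrations. At the GI50, growth is halved.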 The source made the active and inactive calls. Cut-off read from the data, not from the text of the source: active = GI50 up to about 1.1 µM and inactive = higher.

Key:
Assay in all cases: growth of human tumour cells (NCI), 48 h
[1] = test system: SNB-19
[2] = test system: MOLT-4
[3] = test system: UO-31
[4] = test system: KM12
[5] = test system: K562
[6] = test system: TK-10
[7] = test system: OVCAR-4
[8] = test system: MDA-MB-435
[9] = test system: LOX IMVI
[10] = test system: RPMI-8226
[11] = test system: ACHN
[12] = test system: M14
[13] = test system: UACC-62
[14] = test system: MDA-N
[15] = test system: RXF 393
[16] = test system: UACC-257
[17] = test system: SK-MEL-28
[18] = test system: OVCAR-8
[19] = test system: HT-29
[20] = test system: PC-3

| SMILES | GI50 [1] | GI50 [2] | GI50 [3] | GI50 [4] | GI50 [5] | GI50 [6] | GI50 [7] | GI50 [8] | GI50 [9] | GI50 [10] | GI50 [11] | GI50 [12] | GI50 [13] | GI50 [14] | GI50 [15] | GI50 [16] | GI50 [17] | GI50 [18] | GI50 [19] | GI50 [20] |
| --- | --- | --- | --- | --- | --- | --- | --- | --- | --- | --- | --- | --- | --- | --- | --- | --- | --- | --- | --- | --- |
| COc1cc(C(=O)Nc2nnc(S(N)(=O)=O)s2)cc(OC)c1OC | > 100 µM (inactive) | > 100 µM (inactive) | > 100 µM (inactive) | > 100 µM (inactive) | > 100 µM (inactive) | > 100 µM (inactive) | > 100 µM (inactive) | > 100 µM (inactive) | > 100 µM (inactive) | > 100 µM (inactive) | > 100 µM (inactive) | > 100 µM (inactive) | > 100 µM (inactive) | > 100 µM (inactive) | > 100 µM (inactive) | > 100 µM (inactive) | > 100 µM (inactive) | > 100 µM (inactive) |  |  |
| COc1cc2c(OC)c3cc(C)oc(=O)c3c(O)c2c(O)c1-c1c(OC)cc2c(OC)c3cc(C)oc(=O)c3c(O)c2c1O | 25.2 µM (inactive) | 15.7 µM (inactive) | 18.5 µM (inactive) | 19.1 µM (inactive) | 16.4 µM (inactive) | 24.4 µM (inactive) | 39.1 µM (inactive) | 18.2 µM (inactive) | 19.6 µM (inactive) | 17.3 µM (inactive) | 16.5 µM (inactive) | 18.1 µM (inactive) | 20.9 µM (inactive) |  | 20.1 µM (inactive) | 20.2 µM (inactive) | 21.2 µM (inactive) | 13 µM (inactive) | 22 µM (inactive) | 14 µM (inactive) |
| CC1=NN(C(=O)Cc2ccccc2)C(=O)/C1=C\c1ccc([N+](=O)[O-])cc1 | > 100 µM (inactive) | > 100 µM (inactive) | > 100 µM (inactive) | > 100 µM (inactive) | > 100 µM (inactive) | > 100 µM (inactive) | > 100 µM (inactive) |  | > 100 µM (inactive) | > 100 µM (inactive) | > 100 µM (inactive) | > 100 µM (inactive) | > 100 µM (inactive) |  | > 100 µM (inactive) | > 100 µM (inactive) | > 100 µM (inactive) | > 100 µM (inactive) | > 100 µM (inactive) |  |
| Cc1[nH]n(-c2ccccc2)c(=O)c1C(N(CCc1ccccc1)C1=NCC(C)S1)(C(F)(F)F)C(F)(F)F (stereo unspecified) | 15.5 µM (inactive) | 20.5 µM (inactive) | 10.4 µM (inactive) | 13.1 µM (inactive) | 15.2 µM (inactive) | 16.3 µM (inactive) | 10.8 µM (inactive) | 10.2 µM (inactive) | 0.164 µM (active) |  | 16.2 µM (inactive) | 11.6 µM (inactive) | 8.71 µM (inactive) | 8.63 µM (inactive) |  | 16 µM (inactive) | 16.4 µM (inactive) |  | 17.8 µM (inactive) | 16.1 µM (inactive) |
| CCOC(=O)CC(C)C1(C(=O)OCC)CCCCC1=O (stereo unspecified) | > 100 µM (inactive) | > 100 µM (inactive) | > 100 µM (inactive) | > 100 µM (inactive) | > 100 µM (inactive) | > 100 µM (inactive) | > 100 µM (inactive) |  | 67.3 µM (inactive) | 25.5 µM (inactive) | > 100 µM (inactive) | > 100 µM (inactive) | > 100 µM (inactive) |  | > 100 µM (inactive) | > 100 µM (inactive) | > 100 µM (inactive) | > 100 µM (inactive) | > 100 µM (inactive) |  |
| CCOC(=O)/C(ON)=C(/CC/C(C(=O)OC)=C(\ON)C(=O)OCC)C(=O)OC | > 100 µM (inactive) | > 100 µM (inactive) | > 100 µM (inactive) | > 100 µM (inactive) | > 100 µM (inactive) | > 100 µM (inactive) | > 100 µM (inactive) |  | > 100 µM (inactive) | > 100 µM (inactive) | > 100 µM (inactive) | > 100 µM (inactive) | > 100 µM (inactive) |  | > 100 µM (inactive) | > 100 µM (inactive) | > 100 µM (inactive) | > 100 µM (inactive) | > 100 µM (inactive) |  |
| COC(=O)N/N=C(/CCC(=O)Nc1ccc(C)c(C)c1)CC(=O)C(C)(C)C | > 100 µM (inactive) | > 100 µM (inactive) | > 100 µM (inactive) | > 100 µM (inactive) | > 100 µM (inactive) | > 100 µM (inactive) | > 100 µM (inactive) |  | > 100 µM (inactive) | > 100 µM (inactive) | > 100 µM (inactive) | > 100 µM (inactive) | > 100 µM (inactive) |  | > 100 µM (inactive) | > 100 µM (inactive) | > 100 µM (inactive) | > 100 µM (inactive) | > 100 µM (inactive) |  |
| c1ccc2c(c1)SC1=Nc3sc4ccccc4[n+]3CN12 | 19.9 µM (inactive) | 11.7 µM (inactive) | 18.5 µM (inactive) | 2.34 µM (inactive) | 6.12 µM (inactive) | 14.8 µM (inactive) |  | 19.7 µM (inactive) |  | 21.8 µM (inactive) | 32.8 µM (inactive) | 22 µM (inactive) | 15.5 µM (inactive) |  |  | 30.7 µM (inactive) |  | 26.4 µM (inactive) | 12.6 µM (inactive) | 24.8 µM (inactive) |
| Cc1nn(-c2ccccc2)c2c1N=C(C(=O)O)CC(c1ccccc1)=N2 | > 10 µM (inactive) | > 10 µM (inactive) |  | > 10 µM (inactive) | > 10 µM (inactive) | > 10 µM (inactive) | > 10 µM (inactive) | > 10 µM (inactive) | > 10 µM (inactive) | > 10 µM (inactive) | > 10 µM (inactive) | > 10 µM (inactive) | > 10 µM (inactive) | > 10 µM (inactive) |  | > 10 µM (inactive) | > 10 µM (inactive) | > 10 µM (inactive) | > 10 µM (inactive) | > 10 µM (inactive) |
| COc1cc2nc(Cl)nc(NS(=O)(=O)c3cc4ccccc4s3)c2cc1OC | 21 µM (inactive) |  | 16.4 µM (inactive) | 23.3 µM (inactive) | 18.2 µM (inactive) | 28.3 µM (inactive) | 27.4 µM (inactive) | 22.4 µM (inactive) | 23.3 µM (inactive) | 18.4 µM (inactive) | 30.8 µM (inactive) | 26.2 µM (inactive) | 16.9 µM (inactive) |  | 16.6 µM (inactive) | 32.4 µM (inactive) | 0.0335 µM (active) | 33 µM (inactive) | 27.5 µM (inactive) | 26.1 µM (inactive) |
| Cc1n[nH]c(=O)n1/N=C/c1ccncc1 | > 100 µM (inactive) | > 100 µM (inactive) | > 100 µM (inactive) | > 100 µM (inactive) | > 100 µM (inactive) | > 100 µM (inactive) | > 100 µM (inactive) | > 100 µM (inactive) | > 100 µM (inactive) |  | > 100 µM (inactive) | > 100 µM (inactive) | > 100 µM (inactive) | > 100 µM (inactive) | > 100 µM (inactive) | > 100 µM (inactive) | > 100 µM (inactive) | > 100 µM (inactive) | > 100 µM (inactive) |  |
| O=C1C(Cl)C(c2cc(Br)cc(Br)c2O)N1n1cnc2ccccc2c1=O (stereo unspecified) | 30.3 µM (inactive) | 7.46 µM (inactive) | 20.7 µM (inactive) | 25.1 µM (inactive) | 26.2 µM (inactive) | 46.5 µM (inactive) | 9.55 µM (inactive) |  | 14.1 µM (inactive) | 12.6 µM (inactive) | 28.2 µM (inactive) | 18.3 µM (inactive) | 19.2 µM (inactive) |  | 21 µM (inactive) | 18.7 µM (inactive) | 19.6 µM (inactive) | 24.7 µM (inactive) | 36.1 µM (inactive) |  |
| Cn1c(=O)n(-c2c3ccccc3c(Cl)c3ccccc23)n(C(C)(C)C)c1=O | > 100 µM (inactive) | > 100 µM (inactive) | > 100 µM (inactive) | > 100 µM (inactive) | > 100 µM (inactive) | > 100 µM (inactive) |  | > 100 µM (inactive) | > 100 µM (inactive) |  | > 100 µM (inactive) | > 100 µM (inactive) | > 100 µM (inactive) | > 100 µM (inactive) |  | > 100 µM (inactive) | > 100 µM (inactive) | 49.5 µM (inactive) | > 100 µM (inactive) | > 100 µM (inactive) |
| COc1cc([N+](=O)[O-])c(S(=O)(=O)O)cc1NS(=O)(=O)c1ccc(C)cc1 | > 100 µM (inactive) | > 100 µM (inactive) | > 100 µM (inactive) | > 100 µM (inactive) | > 100 µM (inactive) | > 100 µM (inactive) | > 100 µM (inactive) | > 100 µM (inactive) | > 100 µM (inactive) | > 100 µM (inactive) | > 100 µM (inactive) | > 100 µM (inactive) | > 100 µM (inactive) | > 100 µM (inactive) |  | > 100 µM (inactive) | > 100 µM (inactive) | > 100 µM (inactive) | > 100 µM (inactive) | > 100 µM (inactive) |
| N=C1NC(=O)N2CC12 (stereo unspecified) [IMEXON] | > 100 µM (inactive) | > 100 µM (inactive) | > 100 µM (inactive) | > 100 µM (inactive) | 73.1 µM (inactive) | > 100 µM (inactive) | > 100 µM (inactive) |  | > 100 µM (inactive) | > 100 µM (inactive) | > 100 µM (inactive) | > 100 µM (inactive) | > 100 µM (inactive) |  | > 100 µM (inactive) | > 100 µM (inactive) | > 100 µM (inactive) | > 100 µM (inactive) | > 100 µM (inactive) |  |
